The record followed here is patent publication US11225466B2, “Benzothiadiazepine compounds and their use as bile acid modulators” (Albireo AB, priority 2019, dated 2022).

One data set deals with T1, Human LBAT (Homo sapiens, UniProt Q14973).
T1 sequence (Q14973 1-349): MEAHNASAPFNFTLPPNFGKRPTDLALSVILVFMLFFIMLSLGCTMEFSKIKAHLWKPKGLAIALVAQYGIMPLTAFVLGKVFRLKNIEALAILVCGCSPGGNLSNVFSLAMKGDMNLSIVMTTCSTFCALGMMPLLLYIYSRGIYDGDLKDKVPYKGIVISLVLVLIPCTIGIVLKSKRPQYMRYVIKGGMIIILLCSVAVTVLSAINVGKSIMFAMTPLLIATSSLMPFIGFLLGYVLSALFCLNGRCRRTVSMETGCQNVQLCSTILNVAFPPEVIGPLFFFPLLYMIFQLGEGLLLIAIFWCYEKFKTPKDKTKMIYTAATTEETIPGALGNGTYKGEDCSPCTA
The data set can be described thus: LBAT (h/m) assay: 3H-taurocholic acid uptake in human LBAT-overexpressing cells. It is filed as cell-based. The following applies: 0.3 μM 3H-taurocholic acid and 7.5 μM cold taurocholic acid, read-out: hLBAT IC50. As for the experimental part:
LBAT (h/m) Assay Protocol
20,000 cells (Human or Mouse LBAT-overexpressing cells) were seeded in 96-wells plate (Corning CLS3809) in 100 μL MEM-alpha medium (Gibco 12571-063) supplemented with 10% FBS (Gibco 10438026) containing Geneticin (Gibco 10131-027) (1 mg/mL) and incubated at 37° C. in 5% CO2 for 24 hours. After incubation, media was decanted from the wells and cells were washed two times with 300 μL of basal MEM-alpha medium (FBS-free). After decanting basal MEM-alpha medium each time, plates were tapped against paper towel to ensure maximum removal of residual media.
For human LBAT, incubation mix was prepared by adding test inhibitor dilutions (3-fold serial dilution in DMSO (Sigma D2650), 10 points) in MEM-alpha (without FBS) containing 0.3 μM 3H-taurocholic acid (ARC ART-1368) and 7.5 μM cold taurocholic acid (Sigma T4009) (maintaining 0.2% final DMSO concentration). […]
100 μL of MicroScint-20 (PerkinElmer 6013621) was added to the wells and kept overnight at room temperature before reading the plates in TopCount NXT™ Microplate Scintillation and Luminescence Counter from PerkinElmer under 3H Test protocol (set at 120 seconds reading time per well, with normal plate orientation). […]

For the next data set, the target named is T2, Human IBAT (Homo sapiens, UniProt Q12908).
T2 construct: expressed in transfected cells; kept under Puromycin selection
T2 sequence (Q12908 1-348): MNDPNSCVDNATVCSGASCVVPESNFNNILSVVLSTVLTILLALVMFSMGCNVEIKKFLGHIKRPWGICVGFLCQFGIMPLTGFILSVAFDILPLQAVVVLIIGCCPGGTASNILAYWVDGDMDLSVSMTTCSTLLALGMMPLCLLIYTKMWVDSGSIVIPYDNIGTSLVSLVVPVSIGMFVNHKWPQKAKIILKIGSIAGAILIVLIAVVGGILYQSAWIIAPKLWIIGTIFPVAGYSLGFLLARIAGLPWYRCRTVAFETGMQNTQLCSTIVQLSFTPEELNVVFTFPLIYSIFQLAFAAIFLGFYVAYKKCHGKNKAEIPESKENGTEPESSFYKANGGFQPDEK
The data set can be described thus: IBAT (h/m) assay: 3H-taurocholic acid uptake in human IBAT-overexpressing cells. It is filed as cell-based. The following applies: 0.25 μM 3H-taurocholic acid and 5 μM cold taurocholic acid, read-out: hIBAT IC50. The method, then: IBAT (h/m) Assay Protocol
10,000 cells (Human or Mouse IBAT-overexpressing cells) were seeded in 96-wells plate (Corning CLS3809) in 200 μL MEM-alpha medium (Gibco 12571-063) supplemented with 10% FBS (Gibco 10438026) containing Puromycin (Gibco A1113803) (10 μg/mL) and incubated at 37° C. in 5% CO2 for 48 hours. After incubation, media was decanted from the wells and cells were washed two times with 300 μL of basal MEM-alpha medium (FBS-free). After decanting basal MEM-alpha medium each time, plates were tapped against paper towel to ensure maximum removal of residual media.
Test inhibitor dilutions (highest test concentration being 10 μM, 3-fold serial dilution, 10 points) prepared in DMSO (Sigma D2650) were added in incubation mix (maintaining 0.2% final DMSO concentration) containing 0.25 μM 3H-taurocholic acid (ARC ART-1368) and 5 μM of cold taurocholic acid (Sigma T4009). 50 μL of incubation mix containing test inhibitors was then added to the wells (in duplicate) and the plates were incubated for 20 minutes in a CO2 incubator at 37° C. After incubation, the reaction was stopped by keeping the plates on ice water mix for 2-3 minutes and then the incubation mix was aspirated completely from the wells. The wells were washed two times with 250 μL of chilled unlabeled 1 mM taurocholic acid dissolved in HEPES (Gibco 15630080)-buffered (10 mM) HBSS (Gibco 14175079) (pH 7.4). The plates were tapped against a paper towel after every wash to ensure maximum removal of blocking buffer.
100 μL of MicroScint-20 (PerkinElmer 6013621) was added to the wells and kept overnight at room temperature before reading the plates in TopCount NXT™ Microplate Scintillation and Luminescence Counter from PerkinElmer under 3H Test protocol (set at 120 seconds reading time per well).
All test compounds were provided in powder form at room temperature. 10 mM DMSO stocks of the test compounds were prepared, aliquoted and stored at −20° C. From the 10 mM DMSO stock of the compounds, a 3-fold serial dilution in DMSO was prepared to get a total of 10 dilutions of the test compounds. […]

A short description of data set [1]: Bidirectional permeability assay (Caco-2 cells). It is filed as in vitro ADME. To be noted: human, Caco-2, pH 7.4, 120 minutes at 37° C., FaSSIF buffer; for Papp A→B at 120 min, 10 µM: absorptive direction (A2B); for Papp B→A at 120 min, 10 µM: secretory direction (B2A). The source says: Bidirectional Permeability Assay (Caco-2 Cells)
(In general: Passage across Caco-2 layers is used to estimate intestinal permeability.)

As to `CCCC[C@@]1(CC)CN(c2ccccc2)c2cc(SC)c(OCC(=O)O)cc2S(=O)(=O)N1` (single isomer, unassigned) [Example 2], the IC50 (as a rule, the midpoint of a concentration-inhibition curve) at Human LBAT stood at 3980 nM. Besides, the IC50 at Human IBAT was determined as 5.7 nM. Besides, in data set [1], the apparent permeability from apical to basolateral (Papp A→B) (commonly the apparent permeability from the apical to the basolateral side of a cell layer) at 120 min, 10 µM is 2.52 ×10⁻⁶ cm/s and the Papp B→A (usually the apparent permeability from the basolateral to the apical side of a cell layer) at 120 min, 10 µM worked out at 4 ×10⁻⁶ cm/s.
Take `CCCC[C@]1(CC)CN(c2ccccc2)c2cc(SC)c(OCC(=O)O)cc2S(=O)(=O)N1` (single isomer, unassigned) [Example 3]: the IC50 stood at 5000 nM at Human LBAT and 182 nM at Human IBAT.
Take `CCCCC1(CC)CN(c2ccccc2)c2cc(SC)c(OCC(=O)O)cc2S(=O)(=O)N1` (stereo not drawn) [Example 1, 2-((3-butyl-3-ethyl-7-(methylthio)-1,1-dioxido-5-phenyl-2,3,4,5-tetrahydrobenzo-1,2,5-thiadiazepin-8-yl)oxy)acetic Acid]: at Human IBAT, the IC50 came out at 8.8 nM. In data set [1], this compound came in with a Papp A→B at 120 min, 10 µM of 1.1 ×10⁻⁶ cm/s and a Papp B→A at 120 min, 10 µM of 2.9 ×10⁻⁶ cm/s.
